Experimental data published in publication PMC12435690, “KYLO-0603, a novel liver-targeting, thyroid hormone receptor-β agonist for the inhibition of MASH progression” (PLOS One, 2025).

Legend:
in vitro [1] = conditions: human, plasma
Description: (§1) We evaluated the metabolic stability of Kylo-0603 in the plasma of CD-1 mice, Sprague–Dawley (SD) rats, beagle dogs, cynomolgus monkeys, and humans. The plasma from the five species was mixed with Kylo-0603 (2 μM) and incubated at 37°C in a thermostatic water tank. The plasma concentrations of Kylo-0603 were monitored via LC-MS/MS at 0, 10, 30, 60, and 120 min.

[2] = Metabolic stability in plasma (beagle dogs); conditions: dog
Description: as §1

HFD-induced obese mice = experiment: HFD-induced obese mice, oral once daily treatment; conditions: for fat content reduction / increase in the percentage of lean mass / reduction in Chol level / reduction in LDL-C level: vs HFD control; for Ballooning score / Fibrosis Score / Lobular inflammation score / NAFLD activity score / Steatosis score: DIO mice, HFD
Description: Experiments were performed on 112 (n = 16/group) male C57BL/6J mice (5 weeks). After 3 days of acclimatization, the animals were randomly divided according to body weight into a control group (Chow Diet) and a HFD group (HFD, 60% calories as fat, Cat# D12492, Research Diet, Jiangsu Xietong Pharmaceutical Bioengineering Co., Ltd.). The mice were fed with the corresponding diets for 16 weeks (with bedding shavings and a high-fat diet changed twice a week), during which the bedding shavings and high-fat diet (HFD) were refreshed twice weekly (see S1 Fig). Body weights were recorded on a weekly basis throughout this period. […] A separate cohort of mice, fed a standard chow diet, served as normal controls and received daily oral gavages of the vehicle. At the end of the experiment, the mice were fasted for 6 hours and then sacrificed. The animals were euthanized by CO2 inhalation and blood were collected along with liver and heart tissues. Collected blood samples were centrifuged to obtain the serum for the detection of cholesterol, triglyceride, and low-density lipoprotein cholesterol. The heart and liver tissues were weighed and photographed. The livers and hearts of the mice were rapidly removed and washed with cold saline. Half of the left lobe of liver was fixed in 4% neutral paraformaldehyde, and the remaining part of livers and hearts were snap-frozen and stored at −80°C for further analysis. The concentrations of serum lipids and liver enzymes from orbital or cardiac blood were determined by measuring triglycerides (TG), cholesterol (Chol), Low-density lipoprotein cholesterol (LDL-C), alanine transaminase (ALT), and aspartate transaminase (AST) levels using a Hitachi 7020 automated hematology laboratory and a Wako kit.
The dewaxed tissue slides were incubated in the alcohol-free hematoxylin staining solution for a period of 3–5 minutes, followed by thorough rinsing with running tap water. The slides were then subjected to differentiated and bluing for several seconds, after which they underwent sequential dehydration through a series of ethanol solutions with increasing concentrations (50%, 70%, 85%, and 95%). They were then subjected to eosin staining for a period of 5–10 minutes. The slides were then dehydrated sequentially with 95%, 100%, and 100% ethanol before being cleared with xylene. Finally, the slides were sealed with neutral gum, dried, and imaged.
The frozen sections were immersed in 60% isopropyl alcohol for 3–5 minutes, followed by immersion in Oil Red staining solution for 3–5 minutes. The samples were then washed with pure water. Following a wash with pure water, the nuclei were restained with hematoxylin, after which the sections were sealed with 50% glycerol, dried and photographed for imaging.
The dewaxed slides were rinsed in running water, stained with Sirius Red for 8–10 minutes, washed slightly in anhydrous ethanol, dehydrated, made transparent by gradient ethanol and xylene, and finally sealed with neutral gum, dried and photographed for imaging.

in vitro [3] = conditions: beagle, dog, plasma
Description: as §1

[4] = Metabolic stability in plasma (cynomolgus monkeys); conditions: cynomolgus monkey
Description: as §1

[5] = tested on: MASH mouse models (F2 ~ 3); experiment: SHG/TPEF microscopy of liver fibrosis and steatosis in MASH mouse models; format: in vivo, C57BL/6J mice; conditions: for SHG fibrosis percentage / percentage of steatosis: 8 weeks; for SHG fibrosis percentage: control 4.36%; for percentage of steatosis: control 21.66%
Description: Scanning was conducted on a Genesis® machine, a stain-free TPE/SHG microscopic imaging device manufactured in-house by HistoIndex®, Singapore. The region of interest (ROI) is systematically partitioned into uniformly sized, termed “blocks,” each measuring of 200 μm × 200 μm. These blocks were sequentially imaged individually and in sequence in raster scan mode utilizing a 20x objective lens. Each block has a resolution of 512 × 512 pixels, or 0.4 μm per pixel. Software developed by HistoIndex and Chipmap for image analysis identifies the different lobular regions, the central vein, the confluent region, and the perisinus region. Fibrosis and steatosis in these regions were subsequently measured and quantified in the SHG and TPE images.
As a fundamental component of clinical prognosis in MASH, a precise evaluation of hepatic fibrosis is very crucial. Artificial intelligence-assisted second harmonic generation/two-photon excitation fluorescence (SHG/TPEF) microscopy technique has been introduced because the existing scoring systems are insufficient for capturing the process of hepatic fibrosis regression. This offers a consistent and very precise way to evaluate the pathological characteristics of MASH, especially the serial measurement of collagen fibers and hepatic fibrosis. In this study, we employed second harmonic generation/two-photon excited fluorescence (SHG/TPEF) microscopy integrated with digital image analysis to evaluate liver tissue sections across a larger tissue area from MASH mouse models (F2–F3). This approach enabled systematic analysis of the effects of Kylo-0603 on arresting the progression of hepatic steatosis and fibrosis of liver tissue.
Through quantitative analysis of SHG/TPEF imaging datasets, we conducted a detailed assessment of the specific impacts of varying Kylo-0603 dosages (0.1 mg/kg, 0.3 mg/kg, 1 mg/kg, 3 mg/kg, and 10 mg/kg) on fibrogenesis and steatosis in F2–F3 MASH mouse models. The key findings are systematically summarized as follows: […]

CC(=O)N[C@H]1[C@H](OCCCCCCNC(=O)CCOCC(COCCC(=O)NCCCCCCO[C@@H]2O[C@H](CO)[C@H](O)[C@H](O)[C@H]2NC(C)=O)(COCCC(=O)NCCCCCCO[C@@H]2O[C@H](CO)[C@H](O)[C@H](O)[C@H]2NC(C)=O)NC(=O)CCCCCNC(=O)COc2cc(C)c(Cc3ccc(O)c(C(C)C)c3)c(C)c2)O[C@H](CO)[C@H](O)[C@@H]1O [Kylo-0603]
half-life at 2 μM (in vitro [1]): > 6.21 h
plasma stability [2]: unstable
body weight reduction vs HFD control group (HFD-induced obese mice; 0.1 mg/kg PO once daily, 10 weeks): 0.8%
fat content reduction (HFD-induced obese mice; 0.1 mg/kg, 8 weeks): 8.96%
increase in the percentage of lean mass (HFD-induced obese mice; 0.1 mg/kg, 8 weeks): 5.32%
reduction in Chol level (HFD-induced obese mice; 0.1 mg/kg, 10 weeks): 30.6%
reduction in LDL-C level (HFD-induced obese mice; 0.1 mg/kg, 10 weeks): 58.0%
body weight reduction vs HFD control group (HFD-induced obese mice; 0.3 mg/kg PO once daily, 10 weeks): 4.8%
fat content reduction (HFD-induced obese mice; 0.3 mg/kg, 8 weeks): 9.16%
increase in the percentage of lean mass (HFD-induced obese mice; 0.3 mg/kg, 8 weeks): 10.95%
reduction in Chol level (HFD-induced obese mice; 0.3 mg/kg, 10 weeks): 35.9%
reduction in LDL-C level (HFD-induced obese mice; 0.3 mg/kg, 10 weeks): 72.7%
body weight reduction vs HFD control group (HFD-induced obese mice; 1 mg/kg PO once daily, 10 weeks): 3.8%
fat content reduction (HFD-induced obese mice; 1 mg/kg, 8 weeks): 14.07%
increase in the percentage of lean mass (HFD-induced obese mice; 1 mg/kg, 8 weeks): 13.52%
reduction in Chol level (HFD-induced obese mice; 1 mg/kg, 10 weeks): 47.9%
reduction in LDL-C level (HFD-induced obese mice; 1 mg/kg, 10 weeks): 81.8%
average reduction of triglyceride content in liver homogenates (HFD-induced obese mice; 3 mg/kg): up to 36.4%
body weight reduction vs HFD control group (HFD-induced obese mice; 3 mg/kg PO once daily, 10 weeks): 13.1%
reduction in Chol level (HFD-induced obese mice; 3 mg/kg, 2 weeks): 52.0%
reduction in LDL-C level (HFD-induced obese mice; 3 mg/kg, 2 weeks): 84.0%
fat content reduction (HFD-induced obese mice; 3 mg/kg, 8 weeks): 26.15%
increase in the percentage of lean mass (HFD-induced obese mice; 3 mg/kg, 8 weeks): 21.94%
reduction in Chol level (HFD-induced obese mice; 3 mg/kg, 10 weeks): 53.9%
reduction in LDL-C level (HFD-induced obese mice; 3 mg/kg, 10 weeks): 79.7%
body weight reduction vs HFD control group (HFD-induced obese mice; 10 mg/kg PO once daily, 10 weeks): 15.8%
reduction in Chol level (HFD-induced obese mice; 10 mg/kg, 2 weeks): 64.5%
reduction in LDL-C level (HFD-induced obese mice; 10 mg/kg, 2 weeks): 85.8%
fat content reduction (HFD-induced obese mice; 10 mg/kg, 8 weeks): 44.35%
increase in the percentage of lean mass (HFD-induced obese mice; 10 mg/kg, 8 weeks): 37.91%
reduction in Chol level (HFD-induced obese mice; 10 mg/kg, 10 weeks): 69.2%
reduction in LDL-C level (HFD-induced obese mice; 10 mg/kg, 10 weeks): 88.2%
body length (HFD-induced obese mice; 0.1-10 mg/kg, 8 weeks): not affected
bone density (HFD-induced obese mice; 0.1-10 mg/kg, 8 weeks): not affected
cholesterol content in liver homogenates (HFD-induced obese mice; 2 and 10 weeks): did not exert a notable influence
Ballooning score (HFD-induced obese mice; 0.1 mg/kg, 8 weeks): 1.6 ± 0.5
Fibrosis Score (HFD-induced obese mice; 0.1 mg/kg, 8 weeks): 0.6 ± 0.5
Lobular inflammation score (HFD-induced obese mice; 0.1 mg/kg, 8 weeks): 1.0 ± 0.0
NAFLD activity score (HFD-induced obese mice; 0.1 mg/kg, 8 weeks): 5.0 ± 0.9
Steatosis score (HFD-induced obese mice; 0.1 mg/kg, 8 weeks): 2.4 ± 1.1
Ballooning score (HFD-induced obese mice; 0.3 mg/kg, 8 weeks): 1.4 ± 0.5
Fibrosis Score (HFD-induced obese mice; 0.3 mg/kg, 8 weeks): 0.4 ± 0.5
Lobular inflammation score (HFD-induced obese mice; 0.3 mg/kg, 8 weeks): 1.3 ± 0.5
NAFLD activity score (HFD-induced obese mice; 0.3 mg/kg, 8 weeks): 4.6 ± 1.2
Steatosis score (HFD-induced obese mice; 0.3 mg/kg, 8 weeks): 2.0 ± 1.4
Ballooning score (HFD-induced obese mice; 1 mg/kg, 8 weeks): 1.8 ± 0.5
Fibrosis Score (HFD-induced obese mice; 1 mg/kg, 8 weeks): 0.4 ± 0.5
Lobular inflammation score (HFD-induced obese mice; 1 mg/kg, 8 weeks): 1.1 ± 0.4
NAFLD activity score (HFD-induced obese mice; 1 mg/kg, 8 weeks): 4.4 ± 1.1
Steatosis score (HFD-induced obese mice; 1 mg/kg, 8 weeks): 1.5 ± 0.8
Ballooning score (HFD-induced obese mice; 3 mg/kg, 8 weeks): 1.1 ± 1.0
Fibrosis Score (HFD-induced obese mice; 3 mg/kg, 8 weeks): 0.4 ± 0.5
Lobular inflammation score (HFD-induced obese mice; 3 mg/kg, 8 weeks): 1.1 ± 0.4
NAFLD activity score (HFD-induced obese mice; 3 mg/kg, 8 weeks): 3.4 ± 2.1
Steatosis score (HFD-induced obese mice; 3 mg/kg, 8 weeks): 1.1 ± 1.0
Ballooning score (HFD-induced obese mice; 10 mg/kg, 8 weeks): 1.0 ± 0.9
Fibrosis Score (HFD-induced obese mice; 10 mg/kg, 8 weeks): 0.3 ± 0.5
Lobular inflammation score (HFD-induced obese mice; 10 mg/kg, 8 weeks): 1.0 ± 0.0
NAFLD activity score (HFD-induced obese mice; 10 mg/kg, 8 weeks): 3.2 ± 1.3
Steatosis score (HFD-induced obese mice; 10 mg/kg, 8 weeks): 1.2 ± 0.8
liver weight (HFD-induced obese mice; all dose groups (0.1-10 mg/kg), 10 weeks): significantly decreased
effect on heart weight (HFD-induced obese mice; various doses (0.1-10 mg/kg), 10 weeks): not significant
half-life at 2 μM (in vitro [3]): 5.93 h
plasma stability [4]: stable
SHG fibrosis percentage ([5]; 0.1 mg/kg): 2.92%
percentage of steatosis ([5]; 0.1 mg/kg): 5.07%
SHG fibrosis percentage ([5]; 0.3 mg/kg): 2.12%
percentage of steatosis ([5]; 0.3 mg/kg): 4.39%
SHG fibrosis percentage ([5]; 1 mg/kg): 2.16%
percentage of steatosis ([5]; 1 mg/kg): 4.19%
SHG fibrosis percentage ([5]; 3 mg/kg): 2.03%
percentage of steatosis ([5]; 3 mg/kg): 2.22%
reduction of steatosis vs control group ([5]; 10 mg/kg): 90%
SHG fibrosis percentage ([5]; 10 mg/kg): 1.86%
